Ki data for 33 molecules are collected here from patent US12398097B2, “WDR5-MYC inhibitors” (Vanderbilt University, priority 2019, dated 2025).

The experiment deals with WDR5 (Homo sapiens, UniProt P61964). The experiment can be described thus: Competition-based fluorescence polarization anisotropy assay. The settings on record: binding to WDR5; displacement of FITC-labeled small molecule probe (analogous to Example J2 or HCH-25) or peptide probe FITC-AHx-SEEEIDVVSV; pH 6.0; Ki converted from IC50. As for the experimental part:
Compounds of the present invention were assessed for their ability to bind to WDr5 using a competition-based fluorescence polarization anisotropy assay, similar to the method previously described. […] Fluorescence polarization measurements were performed in 384-well plates (Greiner Bio One) using a Cytation 3 plate reader (BioTek). Fluorescein isothiocyanate (FITC)-labeled peptide probe ([…]) was purchased from GenScript USA Inc and used without further purification. […] The assay buffer contained 200 mM phosphate, 300 mM NaCl, and 0.5 mM TCEP and 0.1% Chaps at pH 6.0. […] This was converted into a binding dissociation constant (Ki value) according to the formula: […] Data shown in the table below represents a K; determined from this method for each Example, using either a fluorescently labeled small molecule probe analogous to Example J2 or Example HCH-25, or the peptide probe described above, in the assay.

For orientation: Ki means the equilibrium dissociation constant of an inhibitor or competing ligand from its target. Low values mean a stronger hold on the target, high ones a looser hold on the target. `CS(=O)(=O)c1cc(C2(C#N)CCC2)cc(NS(=O)(=O)c2cc(Br)cc(Cl)c2O)c1O` [Example S60, 5-Bromo-3-chloro-N-(5-(1-cyanocyclobutyl)-2-hydroxy-3-(methylsulfonyl)phenyl)-2-hydroxybenzenesulfonamide]: the Ki is 50 nM.
Molecule `CNC(=O)c1cc(OC(F)(F)F)cc(NS(=O)(=O)c2cc(Br)ccc2O)c1O` [Example J162, 3-((5-Bromo-2-hydroxyphenyl)sulfonamido)-2-hydroxy-N-methyl-5-(trifluoromethoxy)benzamide] registered a Ki of 410 nM.
Then `CS(=O)(=O)c1cc(NS(=O)(=O)c2cc(Br)cc(Cl)c2O)cc(OC(F)(F)F)c1` [Example S12, 5-Bromo-3-chloro-2-hydroxy-N-(3-(methylsulfonyl)-5-(trifluoromethoxy)phenyl)benzenesulfonamide], with 70 nM; and `NC(=O)c1cc(C2CC2)cc(NS(=O)(=O)c2cc(Br)cc(Cl)c2O)c1O` [Example J94, 3-((5-Bromo-3-chloro-2-hydroxyphenyl)sulfonamido)-5-cyclopropyl-2-hydroxybenzamide], with 400 nM.
For the molecule `COc1ccc(Br)cc1S(=O)(=O)Nc1cc(Cl)cc(S(C)(=O)=O)c1O` [Example S49, 5-Bromo-N-(5-chloro-2-hydroxy-3-(methylsulfonyl)phenyl)-2-methoxybenzenesulfonamide], affinity was put at a Ki of 290 nM.
In turn, `N#CC1(c2cc(NS(=O)(=O)c3cc(Br)ccc3O)c(O)c(C(=O)NCc3ccc(=O)[nH]c3)c2)CCC1` [Example J230, 3-((5-Bromo-2-hydroxyphenyl)sulfonamido)-5-(1-cyanocyclobutyl)-2-hydroxy-N-((6-oxo-1,6-dihydropyridin-3-yl)methyl)benzamide] yielded a Ki of 630 nM.
To `O=C(c1cc(Cl)cc(NS(=O)(=O)c2cc(Br)ccc2O)c1O)N1CCOCC1` [Example J30, 5-Bromo-N-(5-chloro-2-hydroxy-3-(morpholine-4-carbonyl)phenyl)-2-hydroxybenzenesulfonamide] belongs 2360 nM; to `CNC(=O)c1cc(C2CC2)cc(NS(=O)(=O)c2cc(Br)ccc2O)c1O` [Example J81, 3-((5-Bromo-2-hydroxyphenyl)sulfonamido)-5-cyclopropyl-2-hydroxy-N-methylbenzamide], 750 nM.
Molecule `CNC(=O)c1cc(OC(F)(F)F)cc(NS(=O)(=O)c2cc(Cl)ccc2O)c1O` [Example J175, 3-((5-Chloro-2-hydroxyphenyl)sulfonamido)-2-hydroxy-N-methyl-5-(trifluoromethoxy)benzamide] displayed a Ki of 810 nM.
To `COc1cc(Cl)c(Br)cc1S(=O)(=O)Nc1cc(C2(C#N)CCC2)cc(C(=O)O)c1O` [Example J207, 3-((5-Bromo-4-chloro-2-methoxyphenyl)sulfonamido)-5-(1-cyanocyclobutyl)-2-hydroxybenzoic acid] belongs 220 nM; to `O=S(=O)(Nc1cc(C2(C(F)(F)F)CC2)ccc1O)c1cc(Br)ccc1O` [JDM-09-131, 5-Bromo-2-hydroxy-N-(2-hydroxy-5-(1-(trifluoromethyl)cyclopropyl)phenyl)benzenesulfonamide], 550 nM; to `COCCNC(=O)c1cc(NS(=O)(=O)c2cc(Br)ccc2O)cc(C2CC2)c1F` [Example J136, 5-((5-Bromo-2-hydroxyphenyl)sulfonamido)-3-cyclopropyl-2-fluoro-N-(2-methoxyethyl)benzamide], 1110 nM.
Then `O=C(NCC1CCCO1)c1cc(OC(F)(F)F)cc(NS(=O)(=O)c2cc(Cl)ccc2O)c1O` (stereo not drawn) [Example J178, 3-((5-Chloro-2-hydroxyphenyl)sulfonamido)-2-hydroxy-N-((tetrahydrofuran-2-yl)methyl)-5-(trifluoromethoxy)benzamide], with 700 nM.
Then `O=C(NCc1ccco1)c1cc(Cl)cc(NS(=O)(=O)c2cc(Br)ccc2O)c1O` [Example J34, 3-((5-Bromo-2-hydroxyphenyl)sulfonamido)-5-chloro-N-(furan-2-ylmethyl)-2-hydroxybenzamide], with 320 nM; and `CC(C)N(CCSc1cc(Cl)cc(NS(=O)(=O)c2cc(Br)cc(Cl)c2O)c1)C(C)C` [Example S36, 5-Bromo-3-chloro-N-(3-chloro-5-((2-(diisopropylamino)ethyl)thio)phenyl)-2-hydroxybenzenesulfonamide], with 780 nM; and `O=S(=O)(Nc1cc(Cl)cc(S(=O)(=O)NCC2CCCO2)c1O)c1cc(Br)ccc1O` (stereo not drawn) [Example S32-2, 5-Bromo-N-(5-chloro-2-hydroxy-3-(N-((tetrahydrofuran-2-yl)methyl)sulfamoyl)phenyl)-2-hydroxybenzenesulfonamide], with 530 nM.
Consider `CCN(CC)CCS(=O)(=O)c1cc(Cl)cc(NS(=O)(=O)c2cc(Br)ccc2O)c1` [Example S40, 5-Bromo-N-(3-chloro-5-((2-(diethylamino)ethyl)sulfonyl)phenyl)-2-hydroxybenzenesulfonamide], for which the Ki came to 4380 nM.
To `N#CC1(c2cc(NS(=O)(=O)c3cc(Br)ccc3O)c(O)c(C(=O)NCC3CCCCO3)c2)CCC1` (stereo not drawn) [Example J229, 3-((5-Bromo-2-hydroxyphenyl)sulfonamido)-5-(1-cyanocyclobutyl)-2-hydroxy-N-((tetrahydro-2H-pyran-2-yl)methyl)benzamide] belongs 850 nM; to `CCN(CC)CCS(=O)(=O)c1cc(Cl)cc(NS(=O)(=O)c2cc(Br)cc3cccnc23)c1` [Example S43, 6-Bromo-N-(3-chloro-5-((2-(diethylamino)ethyl)sulfonyl)phenyl)quinoline-8-sulfonamide], 31300 nM; to `COCCCNC(=O)c1cc(Cl)cc(NS(=O)(=O)c2cc(Br)ccc2OC)c1O` [Example J51, 3-((5-Bromo-2-methoxyphenyl)sulfonamido)-5-chloro-2-hydroxy-N-(3-methoxypropyl)benzamide], 2450 nM.
To `CC(NC(=O)c1cc(OC(F)(F)F)cc(NS(=O)(=O)c2cc(Br)cc(Cl)c2O)c1O)C(N)=O` (stereo not drawn) [HCH-57, N-(1-Amino-1-oxopropan-2-yl)-3-((5-bromo-3-chloro-2-hydroxyphenyl)sulfonamido)-2-hydroxy-5-(trifluoromethoxy)benzamide] belongs 150 nM; to `O=C(O)c1cc(C2CC2)cc(NS(=O)(=O)c2cc(Br)cc3cccnc23)c1F` [Example J113, 3-((6-Bromoquinoline)-8-sulfonamido)-5-cyclopropyl-2-fluorobenzoic acid], 1710 nM; to `COCCNC(=O)c1cc(Cl)cc(NS(=O)(=O)c2cc(Br)ccc2OC)c1O` [Example J45, 3-((5-Bromo-2-methoxyphenyl)sulfonamido)-5-chloro-2-hydroxy-N-(2-methoxyethyl)benzamide], 990 nM.
Take `CNC(=O)c1cc(NS(=O)(=O)c2cc(Br)ccc2O)cc(C2CC2)c1F` [Example J135, 5-((5-Bromo-2-hydroxyphenyl)sulfonamido)-3-cyclopropyl-2-fluoro-N-methylbenzamide]: the Ki was 690 nM.
Molecule `COC[C@H]1CCCN1C(=O)c1cc(OC(F)(F)F)cc(NS(=O)(=O)c2cc(Br)ccc2O)c1O` [Example J172, (R)-5-Bromo-2-hydroxy-N-(2-hydroxy-3-(2-(methoxymethyl)pyrrolidine-1-carbonyl)-5-(trifluoromethoxy)phenyl)benzenesulfonamide] registered a Ki of 680 nM.
Then `N#CC1(c2ccc(O)c(NS(=O)(=O)c3cc(Br)ccc3O)c2)CC1` [JDM-10-107, 5-Bromo-N-(5-(1-cyanocyclopropyl)-2-hydroxyphenyl)-2-hydroxybenzenesulfonamide], with 850 nM.
Then `CNC(=O)c1cc(C2(C#N)CCC2)cc(NS(=O)(=O)c2cc(Br)cc(Cl)c2O)c1O` [Example J211, 3-((5-Bromo-3-chloro-2-hydroxyphenyl)sulfonamido)-5-(1-cyanocyclobutyl)-2-hydroxy-N-methylbenzamide], with 50 nM; and `COC[C@@H]1CCCN1C(=O)c1cc(Cl)cc(NS(=O)(=O)c2cc(Br)ccc2OC)c1O` [Example J56, (S)-5-Bromo-N-(5-chloro-2-hydroxy-3-(2-(methoxymethyl)pyrrolidine-1-carbonyl)phenyl)-2-methoxybenzenesulfonamide], with 4640 nM; and `CCc1cc(Br)cc(S(=O)(=O)Nc2cc(Cl)cc(C(=O)NC(C)C(N)=O)c2O)c1O` (stereo not drawn) [HCH-59, N-(1-Amino-1-oxopropan-2-yl)-3-((5-bromo-3-ethyl-2-hydroxyphenyl)sulfonamido)-5-chloro-2-hydroxybenzamide], with 340 nM.
To `COCCNC(=O)c1c(O)c(NS(=O)(=O)c2cc(Br)cc(Cl)c2O)cc(C2CC2)c1F` [Example J147, 3-((5-Bromo-3-chloro-2-hydroxyphenyl)sulfonamido)-5-cyclopropyl-6-fluoro-2-hydroxy-N-(2-methoxyethyl)benzamide] belongs 230 nM; to `COc1cc(F)c(Br)cc1S(=O)(=O)Nc1cc(C2CC2)cc(C(=O)O)c1O` [Example J72, 3-((5-Bromo-4-fluoro-2-methoxyphenyl)sulfonamido)-5-cyclopropyl-2-hydroxybenzoic acid], 1110 nM; to `COc1ccc(Br)cc1S(=O)(=O)Nc1cc(Cl)cc([N+](=O)[O-])c1O` [NE1, 5-Bromo-N-(5-chloro-2-hydroxy-3-nitrophenyl)-2-methoxybenzenesulfonamide], 1780 nM.
Regarding `O=C(NC1COC1)c1cc(OC(F)(F)F)cc(NS(=O)(=O)c2cc(Br)ccc2O)c1O` [HCH-9, 3-((5-Bromo-2-hydroxyphenyl)sulfonamido)-2-hydroxy-N-(oxetan-3-yl)-5-(trifluoromethoxy)benzamide], the affinity corresponds to a Ki of 380 nM.
